Measurements reported in article PMC10366214, “The anti-Alzheimer potential of novel spiroindolin-1,2-diazepine derivatives as targeted cholinesterase inhibitors with modified substituents” (Scientific Reports, 2023).
Where two headings read alike, the source gives them in different places.

Legend:
BChE = BChE (Homo sapiens, UniProt P06276); experiment: BChE inhibition, modified Ellman method; type: biochemical; settings: for inhibition at 50 µM: read-out: BChE % inhibition at 50 µM
Description: (§1) Cholinesterase inhibitory activities of all analogs were evaluated spectrometrically using the modified Ellman method as previously reported[40],[41]. […] The absorbance of each well was measured at 415 nm using a microplate reader. IC50 values and inhibition values were calculated with the software GraphPad Prism as the mean of three independent experiments and are expressed as mean ± SEM.

AChE = AChE (Homo sapiens, UniProt P22303); experiment: biochemical; settings: for inhibition at 50 µM: read-out: AChE % inhibition at 50 µM
Description: as §1

[1] = 50 µM, mean ± S.E of three to five independent experiments
[2] = mean ± S.E of three to five independent experiments, read-out: BChE IC50
[3] = mean ± S.E of three to five independent experiments, read-out: AChE IC50

Chain of BChE (P06276 29-602): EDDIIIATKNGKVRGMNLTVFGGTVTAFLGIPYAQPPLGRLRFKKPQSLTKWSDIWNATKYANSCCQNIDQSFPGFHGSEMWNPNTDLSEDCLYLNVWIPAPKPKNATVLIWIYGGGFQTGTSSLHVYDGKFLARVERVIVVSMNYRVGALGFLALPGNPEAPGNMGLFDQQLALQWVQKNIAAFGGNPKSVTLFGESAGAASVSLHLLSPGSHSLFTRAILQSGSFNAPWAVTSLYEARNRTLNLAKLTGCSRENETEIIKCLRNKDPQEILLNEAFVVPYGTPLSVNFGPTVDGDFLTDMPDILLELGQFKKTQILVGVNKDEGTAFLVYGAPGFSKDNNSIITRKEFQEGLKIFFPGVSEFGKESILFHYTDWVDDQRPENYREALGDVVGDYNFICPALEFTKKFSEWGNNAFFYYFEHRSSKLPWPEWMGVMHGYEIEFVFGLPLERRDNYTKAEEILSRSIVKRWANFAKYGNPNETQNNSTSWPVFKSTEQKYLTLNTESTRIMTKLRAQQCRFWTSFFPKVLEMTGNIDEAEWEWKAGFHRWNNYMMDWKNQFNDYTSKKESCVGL
Chain of AChE (P22303 32-614): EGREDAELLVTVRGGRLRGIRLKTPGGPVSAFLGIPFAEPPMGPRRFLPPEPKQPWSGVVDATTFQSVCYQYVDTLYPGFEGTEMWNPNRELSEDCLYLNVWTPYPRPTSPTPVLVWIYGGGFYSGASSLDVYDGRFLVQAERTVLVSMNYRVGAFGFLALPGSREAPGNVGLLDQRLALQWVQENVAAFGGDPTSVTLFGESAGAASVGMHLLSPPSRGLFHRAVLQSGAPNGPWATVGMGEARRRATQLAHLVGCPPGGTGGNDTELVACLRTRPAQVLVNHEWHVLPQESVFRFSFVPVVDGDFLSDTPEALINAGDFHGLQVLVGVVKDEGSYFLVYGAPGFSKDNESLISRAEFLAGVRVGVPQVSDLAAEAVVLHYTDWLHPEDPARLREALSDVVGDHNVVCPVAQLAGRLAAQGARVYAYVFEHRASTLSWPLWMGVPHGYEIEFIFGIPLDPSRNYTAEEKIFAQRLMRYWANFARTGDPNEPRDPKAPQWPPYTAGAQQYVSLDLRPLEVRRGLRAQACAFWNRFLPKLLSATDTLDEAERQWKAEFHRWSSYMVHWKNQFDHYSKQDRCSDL

| Structure (SMILES) | inhibition at 50 µM (BChE; [1]) | inhibition at 50 µM (AChE; [1]) | other results |
| --- | --- | --- | --- |
| Cc1ccc(NC2=C([N+](=O)[O-])C3(C(=O)Nc4c(Br)cc(Br)cc43)C(C#N)=C(N)NN2)cc1 (centres unmarked) [Compound 5o, 3-amino-5',7'-dibromo-6-nitro-2'-oxo-7-(p-tolylamino)-1,2-dihydrospiro[[1,2]diazepine-5,3'-indoline]-4-carbonitrile] | 14.1 ± 3.7% | 37.6 ± 4.74% | – |
| COc1ccc(NC2=C([N+](=O)[O-])C3(C(=O)Nc4c(Cl)cc(Cl)cc43)C(C#N)=C(N)NN2)cc1 (centres unmarked) [Compound 5n, 3-amino-5',7'-dichloro-7-((4-methoxyphenyl)amino)-6-nitro-2'-oxo-1,2-dihydrospiro[[1,2]diazepine-5,3'-indoline]-4-carbonitrile] | 46.5 ± 4.77% | 35.4 ± 7.54% | – |
| N#CC1=C(N)NNC(Nc2ccc(O)cc2)=C([N+](=O)[O-])C12C(=O)Nc1c(Br)cc(Br)cc12 (centres unmarked) [Compound 5r, 3-amino-5',7'-dibromo-7-((4-hydroxyphenyl)amino)-6-nitro-2'-oxo-1,2-dihydrospiro[[1,2]diazepine-5,3'-indoline]-4-carbonitrile] | 51.7 ± 1.29% | 46.7 ± 1.92% | IC50 (BChE; [2]): 45.7 ± 5.62 µM |
| N#CC1=C(N)NNC(Nc2ccc(Cl)cc2)=C([N+](=O)[O-])C12C(=O)Nc1ccc(Cl)cc12 (centres unmarked) [Compound 5e, 3-amino-5'-chloro-7-((4-chlorophenyl)amino)-6-nitro-2'-oxo-1,2-dihydrospiro[[1,2]diazepine-5,3'-indoline]-4-carbonitrile] | – | 13.4 ± 3.34% | BChE % inhibition at 50 µM (BChE; [1]): Not active |
| COc1ccc(OC)c(NC2=C([N+](=O)[O-])C3(C(=O)Nc4ccc([N+](=O)[O-])cc43)C(C#N)=C(N)NN2)c1 (centres unmarked) [Compound 5j, 3-amino-7-((2,5-dimethoxyphenyl)amino)-5',6-dinitro-2'-oxo-1,2-dihydrospiro[[1,2]diazepine-5,3'-indoline]-4-carbonitrile] | – | – | IC50 (BChE): 17.4 ± 3.29 µM; inhibition at 50 µM (BChE): 58.4 ± 3.55%; IC50 (AChE): 20.9 ± 2.96 µM; inhibition at 50 µM (AChE): 61.7 ± 3.77% |
| COc1ccc(OC)c(NC2=C([N+](=O)[O-])C3(C(=O)Nc4c(Br)cc(Br)cc43)C(C#N)=C(N)NN2)c1 (centres unmarked) [Compound 5p, 3-amino-5',7'-dibromo-7-((2,5-dimethoxyphenyl)amino)-6-nitro-2'-oxo-1,2-dihydrospiro[[1,2]diazepine-5,3'-indoline]-4-carbonitrile] | 59.3 ± 3.15% | 73.4 ± 4.21% | IC50 (BChE; [2]): 37.9 ± 4.85 µM; IC50 (AChE; [3]): 11.3 ± 1.65 µM |
| Cc1ccccc1NC1=C([N+](=O)[O-])C2(C(=O)Nc3c(C(F)(F)F)cccc32)C(C#N)=C(N)NN1 (centres unmarked) [Compound 5t, 3-amino-6-nitro-2'-oxo-7-(o-tolylamino)-7'-(trifluoromethyl)-1,2-dihydrospiro[[1,2]diazepine-5,3'-indoline]-4-carbonitrile] | 7.31 ± 5.07% | 24.7 ± 1.94% | – |
| N#CC1=C(N)NNC(Nc2ccc(Cl)cc2)=C([N+](=O)[O-])C12C(=O)Nc1ccc([N+](=O)[O-])cc12 (centres unmarked) [Compound 5k, 3-amino-7-((4-chlorophenyl)amino)-5',6-dinitro-2'-oxo-1,2-dihydrospiro[[1,2]diazepine-5,3'-indoline]-4-carbonitrile] | – | – | inhibition at 50 µM (BChE): 17.9 ± 1.81%; inhibition at 50 µM (AChE): 24.6 ± 1.7% |
| COc1ccc(NC2=C([N+](=O)[O-])C3(C(=O)Nc4ccc(Cl)cc43)C(C#N)=C(N)NN2)cc1 (centres unmarked) [Compound 5b, 3-amino-5'-chloro-7-((4-methoxyphenyl)amino)-6-nitro-2'-oxo-1,2-dihydrospiro[[1,2]diazepine-5,3'-indoline]-4-carbonitrile] | 36.8 ± 2.1% | 42.8 ± 2.15% | – |
| COc1ccc(NC2=C([N+](=O)[O-])C3(C(=O)Nc4c(C(F)(F)F)cccc43)C(C#N)=C(N)NN2)cc1 (centres unmarked) [Compound 5s, 3-amino-7-((4-methoxyphenyl)amino)-6-nitro-2'-oxo-7'-(trifluoromethyl)-1,2-dihydrospiro[[1,2]diazepine-5,3'-indoline]-4-carbonitrile] | 13.4 ± 3.46% | 56 ± 4.39% | IC50 (AChE; [3]): 17.8 ± 2.79 µM |
| N#CC1=C(N)NNC(Nc2ccc(O)cc2)=C([N+](=O)[O-])C12C(=O)Nc1c(C(F)(F)F)cccc12 (centres unmarked) [Compound 5v, 3-amino-7-((4-hydroxyphenyl)amino)-6-nitro-2'-oxo-7'-(trifluoromethyl)-1,2-dihydrospiro[[1,2]diazepine-5,3'-indoline]-4-carbonitrile] | 13 ± 1.14% | 17.7 ± 1.82% | – |
| Cc1ccc(NC2=C([N+](=O)[O-])C3(C(=O)Nc4ccc([N+](=O)[O-])cc43)C(C#N)=C(N)NN2)cc1C (centres unmarked) [Compound 5h, 3-amino-7-((3,4-dimethylphenyl)amino)-5',6-dinitro-2'-oxo-1,2-dihydrospiro[[1,2]diazepine-5,3'-indoline]-4-carbonitrile] | – | – | BChE % inhibition at 50 µM (BChE; [1]): Not active; inhibition at 50 µM (AChE): 48.6 ± 2.7% |
| Cc1ccccc1NC1=C([N+](=O)[O-])C2(C(=O)Nc3ccc([N+](=O)[O-])cc32)C(C#N)=C(N)NN1 (centres unmarked) [Compound 5f, 3-amino-5',6-dinitro-2'-oxo-7-(o-tolylamino)-1,2-dihydrospiro[[1,2]diazepine-5,3'-indoline]-4-carbonitrile] | – | – | inhibition at 50 µM (BChE): 23.3 ± 3.97%; IC50 (AChE): 22.4 ± 2.11 µM; inhibition at 50 µM (AChE): 59.6 ± 6.75% |
| Cc1ccc(NC2=C([N+](=O)[O-])C3(C(=O)Nc4ccc([N+](=O)[O-])cc43)C(C#N)=C(N)NN2)cc1 (centres unmarked) [Compound 5g, 3-amino-5',6-dinitro-2'-oxo-7-(p-tolylamino)-1,2-dihydrospiro[[1,2]diazepine-5,3'-indoline]-4-carbonitrile] | – | – | inhibition at 50 µM (BChE): 24.4 ± 2.96%; IC50 (AChE): 5.88 ± 0.84 µM; inhibition at 50 µM (AChE): 66.3 ± 6.57% |
| Cc1ccc(NC2=C([N+](=O)[O-])C3(C(=O)Nc4ccc(Cl)cc43)C(C#N)=C(N)NN2)cc1 (centres unmarked) [Compound 5a, 3-amino-5'-chloro-6-nitro-2'-oxo-7-(p-tolylamino)-1,2-dihydrospiro[[1,2]diazepine-5,3'-indoline]-4-carbonitrile] | 18.1 ± 2.88% | 5.37 ± 3.11% | – |
| Cc1ccccc1NC1=C([N+](=O)[O-])C2(C(=O)Nc3c(Cl)cc(Cl)cc32)C(C#N)=C(N)NN1 (centres unmarked) [Compound 5m, 3-amino-5',7'-dichloro-6-nitro-2'-oxo-7-(o-tolylamino)-1,2-dihydrospiro[[1,2]diazepine-5,3'-indoline]-4-carbonitrile] | 41.9 ± 6.47% | 24.8 ± 5.48% | – |
| COc1ccc(OC)c(NC2=C([N+](=O)[O-])C3(C(=O)Nc4ccc(Cl)cc43)C(C#N)=C(N)NN2)c1 (centres unmarked) [Compound 5d, 3-amino-5'-chloro-7-((2,5-dimethoxyphenyl)amino)-6-nitro-2'-oxo-1,2-dihydrospiro[[1,2]diazepine-5,3'-indoline]-4-carbonitrile] | 19.2 ± 4.07% | 27.8 ± 5.26% | – |
| N#CC1=C(N)NNC(Nc2cccc(O)c2)=C([N+](=O)[O-])C12C(=O)Nc1c(Br)cc(Br)cc12 (centres unmarked) [Compound 5q, 3-amino-5',7'-dibromo-7-((3-hydroxyphenyl)amino)-6-nitro-2'-oxo-1,2-dihydrospiro[[1,2]diazepine-5,3'-indoline]-4-carbonitrile] | 37.1 ± 0.84% | 63.1 ± 4.43% | IC50 (AChE; [3]): 12 ± 2.33 µM |
| N#CC1=C(N)NNC(Nc2cccc(O)c2)=C([N+](=O)[O-])C12C(=O)Nc1c(C(F)(F)F)cccc12 (centres unmarked) [Compound 5u, 3-amino-7-((3-hydroxyphenyl)amino)-6-nitro-2'-oxo-7'-(trifluoromethyl)-1,2-dihydrospiro[[1,2]diazepine-5,3'-indoline]-4-carbonitrile] | 10.4 ± 1.07% | 16.4 ± 0.53% | – |
